Measured values as given in patent US9938238B2, “Anti-auxin compounds” (priority 2015, dated 2018).
“Also recorded” adds a separate entry of the source.

What was measured:
Col-0 wt seedlings [1] = assay: Seedling triple response of ethylene-treated etiolated Col-0 wt seedlings; type: in vivo, Arabidopsis
Description: (§1) For screening for chemicals that reduce ethylene response, Arabidopsis ctr1-3 seeds were planted on a microtiter plate containing PNS media in the presence of individual chemicals (50 μM concentration of each) from the Microsource Spectrum Collection. Seedlings were grown in the dark for 4 d after which they were scored for manifestation of the ethylene responsive triple response. For all other growth experiments, seedlings were planted on PNS media supplemented with the relevant chemical (Deslauriers and Larsen, 2010). For conditions requiring pamoic acid, media was supplemented with Pamoic acid disodium salt (Sigma Life Science, St. Louis, Mo.). Measurement of ethylene production was conducted as previously described (Deslauriers and Larsen, 2010).
For Col-0 wt, seedlings were grown in either the presence or absence of 5 μM AgNO3, an inhibitor of ethylene perception, or 100 μL L^−1 ethylene, which is a concentration that results in maximal response in etiolated seedlings. […] It should be noted that the phenotype of PA-treated seedlings in the presence of saturating ethylene is strikingly similar to ethylene-treated wei8 and tart loss-of-function mutants, which are deficient in auxin biosynthesis (Stepanova et al., 2008).

ctr1-3 seedlings = assay: Seedling triple response of constitutive ethylene response mutant ctr1-3 (library screen and follow-up); type: in vivo, Arabidopsis
Description: as §1
A chemical library screen was performed in which etiolated seedlings of the constitutive ethylene response mutant, ctr1-3, were grown in air for 4 d in the presence of chemicals from the Microsource Spectrum Collection, a bioactive and natural compound library consisting of 2000 different compounds. ctr1-3 seedlings were scored for presentation of the ethylene regulated seedling triple response, consisting of severe hypocotyl and root shortening and exaggerated apical hook formation.

[2] = test system: etiolated Col-0 wt seedlings; assay: Measurement of ethylene biosynthesis by gas chromatography; type: in vivo, Arabidopsis
Description: as §1

Col-0 wt seedlings [3] = assay: Root length dose response; type: in vivo, Arabidopsis
Description: as §1
Auxin is required for normal root growth since at physiological concentrations it promotes cell elongation.

Col-0 wt seedlings [4] = assay: Blockage of auxin dependent inhibition of root growth; type: in vivo, Arabidopsis
Description: For screening for chemicals that reduce ethylene response, Arabidopsis ctr1-3 seeds were planted on a microtiter plate containing PNS media in the presence of individual chemicals (50 μM concentration of each) from the Microsource Spectrum Collection. Seedlings were grown in the dark for 4 d after which they were scored for manifestation of the ethylene responsive triple response. For all other growth experiments, seedlings were planted on PNS media supplemented with the relevant chemical (Deslauriers and Larsen, 2010). For conditions requiring pamoic acid, media was supplemented with Pamoic acid disodium salt (Sigma Life Science, St. Louis, Mo.). Measurement of ethylene production was conducted as previously described (Deslauriers and Larsen, 2010). […]

Col-0 wt seedlings [5] = assay: Root gravitropism on vertical agar plates; type: in vivo, Arabidopsis
DR5::GUS = assay: GUS analysis of auxin responsive DR5::GUS reporter line; type: in vivo, Arabidopsis
Description: GUS analysis of DR5::GUS lines was performed as previously described (Ni et al., 2001).
Auxin responsiveness has also been assessed using the Arabidopsis DR5::GUS transgenic line in which several auxin response elements are fused upstream of the GUS reporter gene (Ni et al., 2001). Normally, treatment of DR5::GUS lines with exogenous auxin leads to increased GUS levels, which can be visualized through accumulation of blue color upon adding X-Gluc.

[6] = test system: Col-0 wt, tir1-1, afb1-5, afb2-3, afb3-5, afb4-1 seedlings; assay: Hypocotyl and root elongation of auxin receptor loss-of-function mutants; type: in vivo, Arabidopsis; conditions: tir1-1, increasing range of Tolmetin
Text: Loss of proper auxin signaling as in the dominant shy2-2 mutant (Tian et al., 2003), which fails to have proper turnover of the IAA3 repressor of auxin response, leads to severe hypocotyl shortening for etiolated seedlings (Robles et al., 2012). […] It was of interest to determine what effect PA might have on hypocotyl and root elongation for loss-of-function mutants representing members of the Arabidopsis family of auxin receptors. It was predicted that mutants for receptors with a more prominent role in auxin dependent maintenance of organ elongation would be more severely affected by PA treatment due to the additive effect of the loss-of-function mutation with the effect of this anti-auxinic compound.
For analysis of the role of the various receptors in hypocotyl elongation, Col-0 wt and loss-of-function mutants for all of the auxin receptors (Si-Ammour et al., 2011) except AFB5 were grown for 4 d in the dark in the absence or presence of 30 μM PA on media supplemented with 5 μM AgNO3, which was included to eliminate the negative effect of ethylene on hypocotyl elongation.
A similar result was found for tir1-1 roots. For this experiment, seedlings were grown in the dark for 4 d in the absence or presence of 30 μM PA after which root length was measured. […] This was confirmed by analysis of growth of Col-0 wt and tir1-1 roots across a range of PA concentrations.

TIR1-IAA7 complex = target: T1, TIR1-IAA7 complex (Arabidopsis thaliana, UniProt Q570C0); assay: In vitro assembly of the TIR1-IAA7 complex in the presence of auxin; type: biochemical
T1 sequence (Q570C0 1-594): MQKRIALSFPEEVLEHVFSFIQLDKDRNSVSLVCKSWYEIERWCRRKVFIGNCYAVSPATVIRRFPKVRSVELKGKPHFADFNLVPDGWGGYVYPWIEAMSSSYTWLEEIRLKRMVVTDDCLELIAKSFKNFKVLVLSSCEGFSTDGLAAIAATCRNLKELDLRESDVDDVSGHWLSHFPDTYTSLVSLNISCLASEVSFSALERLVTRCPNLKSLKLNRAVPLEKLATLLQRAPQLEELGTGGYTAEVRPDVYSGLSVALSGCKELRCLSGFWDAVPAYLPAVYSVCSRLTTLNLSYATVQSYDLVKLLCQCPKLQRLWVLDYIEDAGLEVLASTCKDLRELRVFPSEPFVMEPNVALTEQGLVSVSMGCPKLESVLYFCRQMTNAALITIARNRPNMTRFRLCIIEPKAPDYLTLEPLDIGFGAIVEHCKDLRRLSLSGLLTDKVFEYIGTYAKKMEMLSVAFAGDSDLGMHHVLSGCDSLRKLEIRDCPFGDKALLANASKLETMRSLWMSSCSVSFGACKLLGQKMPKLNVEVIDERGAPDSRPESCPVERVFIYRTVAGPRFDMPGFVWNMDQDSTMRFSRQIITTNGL
Text: It should be noted that based on our growth analysis with various loss-of-function mutants for auxin receptors, it is likely that one or more of the other receptors are affected to a greater extent than TIR1 by each of these chemicals.

[7] = etiolated ctr1-3 in air, 4 d, 50 μM of each chemical
[8] = 5 days in the light, 50 micromolar Tolmetin (FIG. 7)

- blockage of assembly of the TIR1-IAA7 complex (TIR1-IAA7 complex): not been possible to demonstrate
SMILES: Cc1ccc(C(=O)c2ccc(CC(=O)O)n2C)cc1 [Tolmetin]
- seedling length independent of ethylene (Col-0 wt seedlings [1]; Col-0 wt with 5 μM AgNO3, 4 d dark, 10 μM PA or Tolmetin up to 30 μM): negative effect was not seen
- manifestation of the ethylene dependent seedling triple response (loss of apical hook formation) (Col-0 wt seedlings [1]; Tolmetin 20-100 micromolar, Col-0 wt treated with saturating ethylene (FIG. 1)): partially blocks
- apical hook formation (Col-0 wt seedlings [1]; etiolated Col-0 wt, 100 μL L−1 (saturating) ethylene, 4 d dark, 10 μM PA or Tolmetin up to 30 μM): prevent apical hook formation; also recorded: nearly complete loss of apical hook formation
- root length / organ specificity of effect in ethylene treated seedlings (Col-0 wt seedlings [1]; etiolated Col-0 wt, saturating ethylene, 4 d dark, 10 μM PA or Tolmetin up to 30 μM): specific to hypocotyls
- ethylene-dependent root growth inhibition (ctr1-3 seedlings; ctr1-3, 10 μM PA or 30 micromolar Tolmetin): did not prevent the severe root growth inhibition; also recorded: does not affect ethylene-dependent root growth inhibition
- root growth of light grown ctr1-3 (ctr1-3 seedlings; ctr1-3 grown in the light, increasing concentrations of Tolmetin (FIG. 3)): No positive effect on root growth was observed
- apical hook formation (ctr1-3 seedlings; dark grown ctr1-3, 10 μM PA or 30 μM Tolmetin): prevent apical hook formation; also recorded: fully eliminated apical hook formation; also recorded: nearly complete loss of apical hook formation
- apical hook formation in chemical library screen (ctr1-3 seedlings; [7]): blocked apical hook formation
- root length in chemical library screen (ctr1-3 seedlings; [7]): measurably longer roots
- ethylene biosynthesis ([2]; 10 μM PA or 30 μM Tolmetin, 96 h, ethylene generated in the last 18 h): no measurable effect on ethylene biosynthesis
- ethylene biosynthesis ([2]; 50 micromolar Tolmetin, 4 days in the dark (FIG. 4)): does not reduce ethylene biosynthesis
- root length at increasing concentrations (Col-0 wt seedlings [3]; Col-0 wt, 7 d, increasing concentrations, versus untreated control roots): severe inhibition of root length
- root growth at low concentrations (Col-0 wt seedlings [3]; Col-0 wt, 7 d, low concentrations): stimulatory effect
- root length (Col-0 wt seedlings [3]; light, increasing concentrations of Tolmetin, 5 days (FIG. 5)): inhibitory to root growth at high concentrations
- inhibitory effect of Tolmetin on root length on addition of IAA (Col-0 wt seedlings [4]; 5 days, 50 micromolar Tolmetin plus 300 nM IAA (FIG. 6)): almost completely overcome
- root length, Tolmetin alone (Col-0 wt seedlings [4]; 5 days, 50 micromolar Tolmetin, 0 nM IAA (FIG. 6)): significant root growth inhibition
- root length, anti-auxin alone (Col-0 wt seedlings [4]; light, 7 d, 30 μM PA or 50 μM Tolmetin alone versus untreated roots): significantly inhibited
- inhibitory effects of exogenous auxin on root length (Col-0 wt seedlings [4]; light, 7 d, 30 μM PA with 150 nM NAA, 50 μM Tolmetin with 300 nM IAA): greatly reduced the inhibitory effects of exogenous auxin
- direction of root growth (gravitropism) (Col-0 wt seedlings [5]; 4 d, vertical agar plates, 30 μM PA or 50 μM Tolmetin): grew in a random manner that was independent of gravity
- direction of root growth (gravitropism) (Col-0 wt seedlings [5]; [8]): agravitropic root growth
- root hairs (Col-0 wt seedlings [5]; [8]): completely lacked root hairs
- dark color (GUS) in the absence of exogenous auxin (DR5::GUS; 0 versus 100 micromolar Tolmetin, no exogenous auxin (FIG. 8)): comparable level of dark color
- staining / auxin dependent lateral root formation (DR5::GUS; 100 μM Tolmetin, 750 nM IAA (FIG. 8)): prevented staining in the area of lateral root development; also recorded: completely blocks auxin dependent lateral root formation
- auxin dependent accumulation of GUS in root tips (DR5::GUS; 100 μM Tolmetin, exposure to IAA): blocked auxin dependent accumulation of GUS in root tips
- root growth sensitivity of tir1-1 [6]: hypersensitive
